Source: patent publication US6333338A, “Bispiperidines as antithrombotic agents” (Laboratoire L. Lafon, priority 1998, dated 2001)
Where a name gives a salt, the structure may show the parent alone. Read-outs that look alike come from different tables or passages of the source.

Legend:
guinea pig platelets [1] = experiment: In vitro inhibition of collagen-induced platelet aggregation, guinea pig platelets (PRP); type: cell-based, guinea pig (male Dunkin-Hartley); settings: Cavia porcellus, Platelet, 0.05 h, collagen 1 μg/ml, 3 minutes of contact at 37° C.
Method: (§1) A study of the inhibitory activity of the compounds of formula I on platelet aggregation was carried out in vitro, i.e. by direct contact of solutions of variable concentrations of the compounds with platelets freshly separated from a sample of total blood, taken under standardized conditions, from laboratory animals (guinea pigs) and from healthy human subjects who have not received any substances or drugs that might interfere with blood clotting. The anti-platelet-aggregating activity was also studied ex vivo/vitro, i.e. after administration of the substances claimed to guinea pigs to measure the intensity and duration of the anti-aggregating action induced by the fraction of the test product absorbed and circulating in the blood.
Blood is taken by intracardiac puncture from male Dunkin-Hartley guinea pigs (weighing about 330 g), at a rate of 4.5 ml per 0.5 ml of trisodium citrate (concentration of the aqueous solution: 1.55%) in order to prevent all trace of clotting. The platelet-rich plasma (PRP) is obtained by centrifuging the tubes of total blood for 15 minutes at 150 g.
The PRPs are collected as "pools". The platelets contained in these pools are counted using a Coulter ZM haematology automatic device: if necessary, a dilution is carried out in order for the platelet concentration in the plasma to be between 200,000 and 400,000 platelets/mm^3. Simultaneously, other samples of these pools serve to prepare the platelet-poor plasma (PPP) by centrifugation at 1500 g for 15 minutes.
The kinetic study of the platelet aggregation is carried out by adding a collagen solution (1 μg/ml) to a volume of PRP, using a Chrono-log Corporation aggregometer (490-D1 or 560 VS) which uses an optical detection of the appearance of the thrombus.
The measurements of the aggregation inhibition are carried out after 3 minutes of contact at 37° C. with agitation.

guinea pig platelets [2] = experiment: Ex vivo/vitro inhibition of platelet aggregation after administration via the gastric route in guinea pigs; parameters: species or system guinea pig (Dunkin-Hartley); settings: Cavia porcellus, Platelet, 10 mg/kg, fasted guinea pigs
Method: as §1, with “blood. Evaluation of the anti-platelet-aggregating activity of the compounds is carried out in the same guinea pigs as those mentioned above (Dunkin-Hartley strain). […] The allocation of the treatments to the animals is random. The blood is taken and then treated under the same conditions as those described above for the in vitro studies. The results of the inhibition of the platelet aggregation obtained for each test concentration make it possible to calculate the IC50 concentration of each test product and the kinetics of the inhibitory effect and its duration of action.” for “blood.”

[3] = 1 h before blood sampling, read-out: % of g.r. inhibition guinea pig ex vivo, d = 10 mg/kg, 1 h
[4] = 2 h before blood sampling, read-out: % of g.r. inhibition guinea pig ex vivo, d = 10 mg/kg, 2 h

| SMILES | IC50 (guinea pig platelets [1]) | inhibition at 10 mg/kg (guinea pig platelets [2]; [3]) | inhibition at 10 mg/kg (guinea pig platelets [2]; [4]) |
| --- | --- | --- | --- |
| Cc1n[nH]c(C)c1S(=O)(=O)NC(CNC(=O)CNC(=O)C(CCC1CCNCC1)CCC1CCNCC1)C(=O)O (stereo not drawn) [Example 55, 2-{[3,5-Dimethyl-1H-pyrazol-4-yl)sulphonyl]amino}-3-{[2-({4-(4-piperidyl)-2-[2-(4-piperidyl)ethyl]butanoyl}amino)acetyl]amino}propanoic Acid Dihydrochloride] | 3500 nM | -21% | -17% |
| O=C(CNC(=O)C(CCC1CCNCC1)CCC1CCNCC1)NC[C@H](NS(=O)(=O)c1cccnc1)C(=O)O [Example 56, 2-[(3-Pyridylsulphonyl)amino]3-{[2-({4-(4-piperidyl)-2-[2-(4-piperidyl)ethyl]butanoyl}amino)acetyl]amino}propanoic Acid Trihydrochloride] | 230 nM | -61% | -50% |
| O=C(CNC(=O)C(CCC1CCNCC1)CCC1CCNCC1)NC[C@H](NS(=O)(=O)c1ccc2c(c1)OCO2)C(=O)O [Example 57, 2-[(1,3-Benzodioxol-5-ylsulphonyl)amino]-3-{[2-({4-(4-piperidyl)-2-[2-(4-piperidyl)ethyl]butanoyl}amino)acetyl]amino}propanoic Acid Dihydrochloride] | 830 nM | -38% | -24% |
| O=C(CNC(=O)C(CCC1CCNCC1)CCC1CCNCC1)NCC(NS(=O)(=O)c1ccc2c(c1)OCCO2)C(=O)O (stereo not drawn) [Example 58, 2-[(2,3-Dihydro-1,4-benzodioxin-6-ylsulphonyl)amino]-3-{[2-({4-(4-piperidyl)-2-[2-(4-piperidyl)ethyl]butanoyl}amino)acetyl]amino}propanoic Acid Dihydrochloride] | 590 nM | -36% | -21% |
| Cc1cc(S(=O)(=O)NC(CNC(=O)CNC(=O)C(CCC2CCNCC2)CCC2CCNCC2)C(=O)O)c(C)o1 (stereo not drawn) [Example 60, 2-{[(2,5-Dimethyl-3-furyl)sulphonyl]amino}-3-{[2-({4-(4-piperidyl)-2-[2-(4-piperidyl)ethyl]butanoyl}amino)acetyl]amino}propanoic Acid Dihydrochloride] | 660 nM | -53% | -32% |
| O=C(CNC(=O)C(CCC1CCNCC1)CCC1CCNCC1)NCC(NS(=O)(=O)c1ccc(C2CCCCC2)cc1)C(=O)O (stereo not drawn) [Example 61, 2-{[(4-Cyclohexylphenyl)sulphonyl]amino)-3-{[2-({4-(4-piperidyl)-2-[2-(4-piperidyl)ethyl]butanoyl}amino)acetyl]amino}propanoic Acid Dihydrochloride] | 1400 nM | -21% | -9% |
| O=C(CNC(=O)C(CCC1CCNCC1)CCC1CCNCC1)NCC(NS(=O)(=O)c1ccc(F)c2ccccc12)C(=O)O (stereo not drawn) [Example 62, 2-{[(4-Fluoro-1-naphthyl)sulphonyl]amino}-3-{[2-({4-(4-piperidyl)-2-[2-(4-piperidyl)ethyl]butanoyl}amino)acetyl]amino}propanoic Acid Dihydrochloride] | 95 nM | -69% | -33% |
| O=C(CNC(=O)C(CCC1CCNCC1)CCC1CCNCC1)NCC(NS(=O)(=O)c1ccc2c(c1)CCO2)C(=O)O (stereo not drawn) [Example 64, 2-[(2,3-Dihydro-1-benzofuran-5-ylsulphonyl)amino]-3-{[2-({4-(4-piperidyl)-2-[2-(4-piperidyl)ethyl]butanoyl}amino)acetyl]amino}propanoic Acid Dihydrochloride] | 370 nM | -65% | -5% |
| O=C(CNC(=O)C(CCC1CCNCC1)CCC1CCNCC1)NC[C@H](NS(=O)(=O)c1ccc(-c2cccs2)cc1)C(=O)O [Example 65, 2-({[4-(2-Thienyl)phenyl]sulphonyl}amino) 3-{[2-({4-(4-piperidyl)-2-[2-(4-piperidyl)ethyl]butanoyl}amino)acetyl]amino}propanoic Acid Dihydrochloride] | 200 nM | -65% | -12% |
| O=C(CNC(=O)C(CCC1CCNCC1)CCC1CCNCC1)NCC(NS(=O)(=O)c1ccccc1-c1cccs1)C(=O)O (stereo not drawn) [Example 66, 2-({[2-(2-Thienyl)phenyl]sulphonyl}amino) 3-{[2-({4-(4-piperidyl)-2-[2-(4-piperidyl)ethyl]butanoyl}amino)acetyl]amino}propanoic Acid Dihydrochloride] | 350 nM | -18% | 0% |
| O=C(CNC(=O)C(CCC1CCNCC1)CCC1CCNCC1)NCC(NS(=O)(=O)c1cc2ccccc2o1)C(=O)O (stereo not drawn) [Example 68, 2-[(1-Benzofuran-2-ylsulphonyl)amino]-3-{[2-({4-(4-piperidyl)-2-[2-(4-piperidyl)ethyl]butanoyl}amino)acetyl]amino}propanoic Acid Dihydrochloride] | 180 nM | -72% | -71% |
| O=C(CNC(=O)C(CCC1CCNCC1)CCC1CCNCC1)NCC(NS(=O)(=O)Cc1ccc2ccccc2c1)C(=O)O (stereo not drawn) [Example 69, 2-{[(2-Naphthylmethyl)sulphonyl]amino}-3-{[2-({4-(4-piperidyl)-2-[2-(4-piperidyl)ethyl]butanoyl}amino)acetyl]amino}propanoic Acid Dihydrochloride] | 1900 nM | -69% | -3% |
| O=C(CNC(=O)C(CCC1CCNCC1)CCC1CCNCC1)NCC(NS(=O)(=O)c1ccc2c(c1)CCC2)C(=O)O (stereo not drawn) [Example 70, 2-[(2,3-Dihydro-1H-inden-5-ylsulphonyl)amino]-3-{[2-({4-(4-piperidyl)-2-[2-(4-piperidyl)ethyl]butanoyl}amino)acetyl]amino}propanoic Acid Dihydrochloride] | 400 nM | -32% | -34% |
| O=C(CNC(=O)C(CCC1CCNCC1)CCC1CCNCC1)NCC(NS(=O)(=O)c1ccc2c(c1)CCCC2)C(=O)O (stereo not drawn) [Example 72, 2-[(5,6,7,8-Tetrahydro-2-naphthalenylsulphonyl)amino]3-{[2-({4-(4-piperidyl)-2-[2-(4-piperidyl)ethyl]butanoyl}amino)acetyl]amino}propanoic Acid Dihydrochloride] | 340 nM | -60% | -67% |
